Results reported in US20120078527A1, “KIT AND METHOD FOR PREDICTING SENSITIVITY OF GASTRIC CANCER PATIENT TO ANTI-CANCER AGENT” (SAMSUNG ELECTRONICS CO., LTD., priority 2010, published 2012).

System: advanced (terminal) gastric cancer patients
Test: Change in tumor size after cisplatin-based chemotherapy in gastric cancer patients
Format: in vivo, human
Settings: population of 151 advanced (terminal) gastric cancer patients; cisplatin-based chemotherapy per NCCN guidelines after palliative surgical resection; judged by changes in tumor size
Description: A population of 151 advanced (terminal) gastric cancer patients who were treated with cisplatin-based chemotherapy (in Samsung Medical Center, Seoul, Korea) after palliative surgical resection were selected to test for sensitivity to the anti-cancer agent. That is, the anti-cancer agent (cisplatin) was administered to the patients according to National Comprehensive Cancer Network (NCCN) guidelines, and changes in tumor size after the administration of the anti-cancer agent were measured to determine whether the anti-cancer therapy was effective. Then, the patients were grouped into two groups: one group of 103 patients for which the anti-cancer therapy was effective (responders), and the other group of 48 patients for which the anti-cancer therapy was not effective (nonresponders). In addition, to identify SNPs associated with response or nonresponse to the anti-cancer agent, DNA of each of the patients was extracted from gastric tumor tissue removed from the patient using QIAamp DNA Mini and blood Mini kits.

## N.N.[Cl][Pt][Cl] [cisplatin]
  patients for which the anti-cancer therapy was effective (responders): 103 patients
  patients for which the anti-cancer therapy was not effective (nonresponders): 48 patients
